The source of these data is patent US8097641B2, “Heterocyclyl substituted tetrahydronaphthalene derivatives as 5-HT7 receptor ligands” (Laboratorios del Dr. Esteve, S.A., priority 2007, dated 2012).

Where a name gives a salt, the structure may show the parent alone.

For this assay, the target named is T1, Cloned Human Serotonin Receptor, Subtype 7 (h5HT7) (Homo sapiens, UniProt P34969).
T1 construct: purchased PerkinElmer 6120512; host or cells: CHO cells (membranes coated on Basic FlashPlate SMP200)
T1 sequence (P34969 whole entry): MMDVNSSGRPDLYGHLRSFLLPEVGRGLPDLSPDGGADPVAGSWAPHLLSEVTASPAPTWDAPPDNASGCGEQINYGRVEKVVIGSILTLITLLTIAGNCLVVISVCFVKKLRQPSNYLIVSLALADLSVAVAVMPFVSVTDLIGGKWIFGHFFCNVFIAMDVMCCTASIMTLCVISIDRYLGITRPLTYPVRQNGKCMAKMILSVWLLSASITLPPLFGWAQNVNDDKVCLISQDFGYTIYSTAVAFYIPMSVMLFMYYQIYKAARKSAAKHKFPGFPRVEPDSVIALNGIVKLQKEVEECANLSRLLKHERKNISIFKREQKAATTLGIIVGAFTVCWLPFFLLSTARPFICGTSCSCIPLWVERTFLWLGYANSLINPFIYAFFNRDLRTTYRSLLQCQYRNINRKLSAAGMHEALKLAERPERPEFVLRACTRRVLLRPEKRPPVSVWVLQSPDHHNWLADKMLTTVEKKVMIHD
Kind of assay: Radioligand binding assay, cloned human serotonin receptor subtype 7 (h5HT7) expressed in CHO cells, [125I]LSD. To be noted: for IC50: [125I]LSD 0.82 nM, h5HT7 membranes from CHO cells, read-out: 5-HT7 IC50; for inhibition at 1 µM: compound at 10^−6 M, read-out: 5-HT7 %-Inhib. (10^−6 M). As for the experimental part: Radioligand binding assays were performed using the Cloned Human Serotonin Receptor, Subtype 7 (h5HT7), expressed in CHO cells, coated on Flashplate (Basic FlashPlate Cat.: SMP200) from PerkinElmer (Cat.: 6120512). The protocol assay was essentially the recommended protocol in the Technical Data Sheet by PerkinEmer Life and Analytical Sciences. The Mass membrane protein/well was typically 12 μg and the Receptor/well was about 9-10 fmoles. The Flashplate were let equilibrate at room temperature for one hour before the addition of the components of the assay mixture. The binding buffer was: 50 mM Tris-HCl, pH 7.4, containing 10 mM MgCl2, 0.5 mM EDTA and 0.5% BSA. The radioligand was [^125I]LSD at a final concentration of 0.82 nM. Nonspecific binding was determined with 50 μM of Clozapine. The assay volume was 25 μl. TopSeal-A were applied onto Flashplate microplates and they were incubated at room temperature for 240 minutes in darkness. The radioactivity were quantified by liquid scintillation spectrophotometry (Wallac 1450 Microbeta Trilux) with a count delay of 4 minutes prior to counting and a counting time of 30 seconds per well. Competition binding data were analyzed by using the LIGAND program (Munson and Rodbard, LIGAND: A versatile, computerized approach for characterization of ligand-binding systems. Anal. Biochem. 107: 220-239, 1980) and assays were performed in triplicate determinations for each point.

Consider `Cc1nn(C)c(C)c1-c1cccc2c1CC[C@H](N(C)Cc1ccccc1)C2` [Example F, (2S)-Benzyl-methyl-[5-(1,3,5-trimethyl-1H-pyrazol-4-yl)-1,2,3,4-tetrahydro-naphthalen-2-yl]-amine], for which the IC50 (commonly the midpoint of a concentration-inhibition curve) is 187 nM.
For `Cc1nn(C)c(C)c1-c1cccc2c1CC[C@H](NC(C)C)C2` [Example P, (2S)-Isopropyl-[5-(1,3,5-trimethyl-1H-pyrazol-4-yl)-1,2,3,4-tetrahydro-naphthalen-2-yl]-amine], the IC50 was 587 ± 10 nM and the inhibition at 1 µM was 61.7%.
Take `Cc1nn(C)c(C)c1-c1cccc2c1CC[C@H](N)C2` [Example O, (2S)-5-(1,3,5Trimethyl-1H-pyrazol-4-yl)-1,2,3,4-tetrahydro-naphthalen-2-ylamine dihydrochloride]: the IC50 worked out at 25 ± 3.8 nM and the inhibition at 1 µM is 79%. In addition, for the setting “compound at 10^−7 M, read-out: 5-HT7 %-Inhib. (10^−7 M)”, the inhibition at 0.1 µM is 47.2%.
